Source: paper PMC9115709, “TIMP‐1‐expressing breast tumor spheroids for the evaluation of drug penetration and efficacy” (Bioengineering & Translational Medicine, 2021)
Like-named read-outs stand apart in the source and are kept apart here.

How the values were obtained:
[1] = tested on: MDA-MB-231 monocellular spheroids; test: Drug efficacy in MDA-MB-231 monocellular spheroids; format: cell-based, human; conditions: drug at IC50 of MDA-MB-231 monolayer cells, 2 days
Protocol: (§1) To form 3D multicellular tumor spheroids, cells was trypsinized and suspended in the growth media. Stromal cells and breast cancer cells were plated with a density of 5 × 10^3 cells /25 μL into 96‐well plate precoated with poly‐HEMA, respectively, resulting in 1 × 10^4 cells exist per each well. After seeding, the plate was centrifuged for 2 min at 1000 rpm to collect the cells in the center of the well. Fifty microliters of 10% Matrigel® Basement Membrane Matrix (Corning, NY, USA) solution diluted in media was gently added into the plate on ice to prevent matrigel from gelation. Monocellular spheroids were generated by a single culture of stromal cells or breast cancer cells. Cells were seeded with a density of 1 × 10^4 cells per well with 50 μL of 10% matrigel on a poly‐HEMA‐coated plate. Then, the plate with cells and matrigel was centrifuged at 1000 rpm for 2 min, and incubated for 48 h at 37°C with 5% CO2.

[2] = tested on: hASC monocellular spheroids; test: Drug efficacy in hASC monocellular spheroids; format: cell-based, human; conditions: drug at IC50 of MDA-MB-231 monolayer cells, 2 days
Protocol: as §1

[3] = tested on: MDA-MB-231 cells; test: IC50 in MDA-MB-231 monolayer cells; format: cell-based, human
[4] = tested on: Multicellular spheroids with hASC and MDA-MB-231; test: Permeability value (PV) in the 3D tumor model; conditions: PV = EffA:M - 1/2(EffASC + EffMDA), Equation (4)
Protocol: Therefore, we defined the permeability value (PV) of each drug as the difference in efficacy in multicellular and monocellular spheroids, as determined by Equation (4).
After treating the drug with spheroids for 2 days, the efficacy of the drug was evaluated by CellTiter‐Glo® 3D Cell Viability Assay (Promega). […] (4) PV=EffA:M−1/2EffASC+EffMDA.

[5] = tested on: Multicellular spheroids with hASC and MDA-MB-231; test: Drug efficacy in hASC and MDA-MB-231 multicellular (A:M) spheroids, CellTiter-Glo 3D; format: cell-based, human; conditions: drug at IC50 of MDA-MB-231 monolayer cells, 2 days
Protocol: as §1

[6] = tested on: hBMSC-co-cultured spheroids (B:M); test: Drug penetration (intrinsic fluorescence) in hBMSC-co-cultured tumor spheroids; format: cell-based, human; conditions: 10 μM, 48 h, fluorescence microscopy
Protocol: (§2) We next tested whether ECM deposition on the surface of spheroids would affect the penetration of anticancer drugs and their efficacy. Three types of 3D multicellular tumor spheroids were formed and treated with 10 μM doxorubicin, epirubicin, or topotecan, which are chemotherapeutic agents for various tumors, including breast cancer, for an additional 48 h.
as §1
(§3) Spheroids were transferred to an opaque‐walled multiwall plate and analyzed by ATP‐based cell viability assays using Real Time‐Glo™ MT Cell Viability Assay (Promega, Madison, WI, USA) according to the manufacturer's protocol. […] Necrotic cells of spheroids were analyzed in Real Time‐Glo™ Annexin V Necrosis Assay (Promega) following the manufacturer's instructions. Luminescence was measured using a Glomax discovery multi Microplate Reader (Glomax discovery, Promega) with an integration time of 0.25–1.0 s per well.

[7] = tested on: hASC-co-cultured spheroids (A:M); test: Drug penetration (intrinsic fluorescence) in hASC-co-cultured tumor spheroids; format: cell-based, human; conditions: for Amount of drug inside the spheroids compared to other spheroids: 10 μM, 48 h, fluorescence microscopy, vs hBMSC- or hDF-co-cultured spheroids; for Amount of drug penetrating the spheroids, TIMP-1 silencing vs control siRNA: hASCs transfected with siTIMP-1, 48 h treatment
Protocol: as §2, §1, §3

[8] = tested on: 3D multicellular tumor spheroids; test: Necrosis in tumor spheroids, Real Time-Glo Annexin V Necrosis Assay; format: cell-based, human; conditions: A:M spheroids with control siRNA or siTIMP-1 hASCs
[9] = tested on: hASC-co-cultured spheroids (A:M); test: Drug efficacy in multicellular tumor spheroids, Real Time-Glo MT Cell Viability Assay; format: cell-based, human; conditions: hASCs transfected with siTIMP-1, 48 h treatment
Protocol: as §3

[10] = tested on: hDF-co-cultured spheroids (F:M); test: Drug penetration (intrinsic fluorescence) in hDF-co-cultured tumor spheroids; format: cell-based, human; conditions: 10 μM, 48 h, fluorescence microscopy
Protocol: as §2, §1, §3

[11] = Homo sapiens, MDA-MB-231 monolayer cells, read-out: MDA-MB-231 IC50

Row | IC50 [3, 11] | Experiment's PV #1 [4] | Experiment's PV #2 [4] | Experiment's PV #3 [4] | IC50 ([3]; MDA-MB-231 monolayer cells, read-out: MDA-MB-231 IC50) | Distribution of drug inside the spheroids [6] | Amount of drug inside the spheroids compared to other spheroids [7] | Amount of drug penetrating the spheroids, TIMP-1 silencing vs control siRNA [7] | Distribution of drug inside the spheroids [10] | SMILES | MDA spheroid Efficacy (EffMDA, %) [1] | hASC spheroid Efficacy (EffASC, %) [2] | A:M spheroid Efficacy (EffA:M, %) [5] | Necrotic cells after drug treatment [8] | Drug efficacy, TIMP-1-silenced hASCs vs control [9] | IC50 ([3]; Homo sapiens, MDA-MB-231, read-out: MDA-MB-231 IC50)
1 | 64.5 µM | 0.025 | 0.062 | -0.012 |  |  |  |  |  | CN(C)c1nc(N(C)C)nc(N(C)C)n1 [Altretamine] | 36.883% | 41.038% |  |  |  | 
2 |  | -0.114 | -0.075 | -0.095 | 72.1 µM |  |  |  |  | CC1(C)[C@@H](O[C@H]2O[C@H](C(=O)O)[C@@H](O)[C@H](O)[C@H]2O[C@@H]2O[C@H](C(=O)O)[C@@H](O)[C@H](O)[C@H]2O)CC[C@]2(C)[C@H]3C(=O)C=C4[C@@H]5C[C@@](C)(C(=O)O)CC[C@]5(C)CC[C@@]4(C)[C@]3(C)CC[C@@H]12 [Ammonium-glycyrrhizinate] | 40.204% | 33.753% | 27.510% |  |  | 
3 | 2.16 µM |  |  |  |  |  |  |  |  | COC(=O)[C@]12CCC(C)(C)C[C@H]1[C@H]1C(=O)C=C3[C@@]4(C)C=C(C#N)C(=O)C(C)(C)[C@@H]4CC[C@@]3(C)[C@]1(C)CC2 [Bardoxolone-methyl] | -35.997% | 38.156% |  |  |  | 
4 | 95 µM | 0.000 | 0.001 | 0.000 |  |  |  |  |  | CCCCCOC(=O)Nc1nc(=O)n([C@@H]2O[C@H](C)[C@@H](O)[C@H]2O)cc1F [Capecitabine] | 99.873% | 99.895% |  |  |  | 
5 |  |  |  |  |  | distributed throughout | significant reduction | significantly increased | distributed throughout | COc1cccc2c1C(=O)c1c(O)c3c(c(O)c1C2=O)C[C@@](O)(C(=O)CO)C[C@@H]3O[C@H]1C[C@H](N)[C@H](O)[C@H](C)O1 [Doxorubicin, doxorubicin] |  |  |  | Few necrotic cells | significantly increased | 
6 | 1.57 µM | -0.096 | -0.017 | -0.056 |  | distributed throughout | significant reduction | significantly increased | distributed throughout | COc1cccc2c1C(=O)c1c(O)c3c(c(O)c1C2=O)C[C@@](O)(C(=O)CO)C[C@@H]3O[C@H]1C[C@H](N)[C@@H](O)[C@H](C)O1 [Epirubicin] | 23.696% | 45.548% |  | Few necrotic cells | significantly increased | 
7 | 32.6 µM | 0.029 | 0.043 | 0.016 |  |  |  |  |  | COc1cc([C@@H]2c3cc4c(cc3[C@@H](O[C@@H]3O[C@@H]5CO[C@@H](C)O[C@H]5[C@H](O)[C@H]3O)[C@H]3COC(=O)[C@H]23)OCO4)cc(OC)c1O [Etoposide] | 64.897% | 73.263% |  |  |  | 
8 | 15.4 µM |  |  |  |  |  |  |  |  | CC#C[C@]1(O)CC[C@H]2[C@@H]3CCC4=CC(=O)CCC4=C3[C@@H](c3ccc(N(C)C)cc3)C[C@@]21C [Mifepristone] | 46.672% | 91.524% |  |  |  | 
9 | 2.38 µM | -0.047 | -0.071 | -0.023 |  |  |  |  |  | CC(=O)O[C@H]1C(=O)[C@@]2(C)[C@H]([C@H](OC(=O)c3ccccc3)[C@]3(O)C[C@H](OC(=O)[C@H](O)[C@@H](NC(=O)c4ccccc4)c4ccccc4)C(C)=C1C3(C)C)[C@]1(OC(C)=O)CO[C@@H]1C[C@@H]2O [Paclitaxel] | 72.690% | 97.404% |  |  |  | 
10 | 0.82 µM |  |  |  |  |  |  |  |  | CC[C@@]1(O)C(=O)OCc2c1cc1n(c2=O)Cc2cc3c([N+](=O)[O-])cccc3nc2-1 [Rubitecan] | 25.373% | 17.266% |  |  |  | 
11 | 72.3 µM |  |  |  |  |  |  |  |  | CNCc1ccc(-c2[nH]c3cc(F)cc4c3c2CCNC4=O)cc1 [Rucaparib] | 92.185% | 99.818% |  |  |  | 
12 | 1.87 µM | 0.031 | 0.035 | 0.027 |  |  |  |  |  | CCc1c2c(nc3ccc(O)cc13)-c1cc3c(c(=O)n1C2)COC(=O)[C@]3(O)CC [SN38, 7-ethyl-10-hydroxycamptothecin] | 58.491% | 60.449% |  |  |  | 
13 | 87.4 µM | 0.051 | 0.057 | 0.046 |  |  |  |  |  | Cn1ncnc1[C@H]1c2n[nH]c(=O)c3cc(F)cc(c23)N[C@@H]1c1ccc(F)cc1 [Talazoparib] | 75.508% | 99.742% |  |  |  | 
14 | 1.83 µM | -0.060 | -0.020 | -0.100 |  |  |  |  |  | CC[C@]1(O)C[C@@H]2CN(CCc3c([nH]c4ccccc34)[C@@](C(=O)OC)(c3cc4c(cc3OC)N(C)[C@H]3[C@@](O)(C(=O)OC)[C@H](OC(C)=O)[C@]5(CC)C=CCN6CC[C@]43[C@@H]65)C2)C1 [Vinblastine] | 9.274% | 25.299% |  |  |  | 
15 |  |  |  |  |  | distributed throughout | significant reduction | significantly increased | distributed throughout | CC[C@@]1(O)C(=O)OCc2c1cc1n(c2=O)Cc2cc3c(CN(C)C)c(O)ccc3nc2-1 [topotecan] |  |  |  | Few necrotic cells | significantly increased | 

Row | SMILES | IC50 [3, 11] | Experiment's PV #1 [4] | Experiment's PV #2 [4] | Experiment's PV #3 [4] | IC50 ([3]; MDA-MB-231 monolayer cells, read-out: MDA-MB-231 IC50) | Distribution of drug inside the spheroids [6] | Amount of drug inside the spheroids compared to other spheroids [7] | Amount of drug penetrating the spheroids, TIMP-1 silencing vs control siRNA [7] | Distribution of drug inside the spheroids [10] | MDA spheroid Efficacy (EffMDA, %) [1] | hASC spheroid Efficacy (EffASC, %) [2] | A:M spheroid Efficacy (EffA:M, %) [5] | Necrotic cells after drug treatment [8] | Drug efficacy, TIMP-1-silenced hASCs vs control [9] | IC50 ([3]; Homo sapiens, MDA-MB-231, read-out: MDA-MB-231 IC50)
16 | CO[C@@]12[C@H](COC(N)=O)C3=C(C(=O)C(C)=C(N)C3=O)N1C[C@@H]1N[C@@H]12 [Mitomycin-c] | 17.5 µM | -0.071 | -0.097 | -0.045 |  |  |  |  |  | 53.401% | 64.309% |  |  |  | 
17 | C/C(=C\c1csc(C)n1)[C@@H]1C[C@@H]2O[C@]2(C)CCC[C@H](C)[C@H](O)[C@@H](C)C(=O)C(C)(C)[C@@H](O)CC(=O)O1 [Patupilone, Patupilone (epothilone-b)] | 33.4 µM | -0.039 | -0.067 | -0.010 |  |  |  |  |  | 23.781% | 34.560% |  |  |  | 
18 | COc1ccc(N(C)c2nc(C)nc3ccccc23)cc1 [Verubulin] |  | 0.039 | 0.029 | 0.085 |  |  |  |  |  | 5.173% | 24.939% |  |  |  | 0.01 µM
